Assay results reported in patent US10173971B2, “Picolinamides with fungicidal activity” (DOW AGROSCIENCES LLC, priority 2014, dated 2019).
Where two headings read alike, the source gives them in different places.

Assays:
Puccinia triticina = test: Fungicidal activity: wheat brown rust (PUCCRT), wheat seedlings, booth sprayer to run-off or track spray; assay type: in vivo; settings: for pest or weed control at 121.5 g/ha: Low-Volume Cereal Activity at 121.5 g/H; for pest or weed control at 100 ppm: High-Volume Cereal Activity at 100 ppm
Zymoseptoria tritici = test: Fungicidal activity: leaf blotch of wheat (SEPTTR), wheat seedlings, booth sprayer to run-off or track spray; assay type: in vivo; settings: for pest or weed control at 121.5 g/ha: Low-Volume Cereal Activity at 121.5 g/H; for pest or weed control at 100 ppm: High-Volume Cereal Activity at 100 ppm
[1] = 24 h, 1 Day Protectant, read-out: PUCCRT 1DP
[2] = 72 h, 3 Day Curative, read-out: PUCCRT 3DC
[3] = 24 h, 1 Day Protectant, read-out: SEPTTR 1DP
[4] = 72 h, 3 Day Curative, read-out: SEPTTR 3DC
[5] = 3DC (Day Curative), read-out: SEPTTR 3DC
[6] = 3DC (Day Curative), read-out: PUCCRT 3DC

SMILES	pest or weed control at 121.5 g/ha (Puccinia triticina; [1])	pest or weed control at 121.5 g/ha (Puccinia triticina; [2])	pest or weed control at 121.5 g/ha (Zymoseptoria tritici; [3])	pest or weed control at 121.5 g/ha (Zymoseptoria tritici; [4])	pest or weed control at 100 ppm (Puccinia triticina; [1])	pest or weed control at 100 ppm (Zymoseptoria tritici; [3])	pest or weed control at 100 ppm (Zymoseptoria tritici; [5])	pest or weed control at 100 ppm (Puccinia triticina; [6])
COc1ccnc(C(=O)N[C@@H](C)C(=O)O[C@@H](C)[C@@H](COCc2ccc(F)cc2)Cc2ccc(F)cc2)c1OC(C)=O [compound 246]	0 to 80%	0 to 80%	80 to 100%	0 to 80%				
COc1ccnc(C(=O)N[C@@H](C)C(=O)O[C@@H](C)[C@H](Cc2ccc(F)cc2)C(C)(C)OCc2ccc(F)cc2)c1OCOC(C)=O [compound 250]	0 to 80%	0 to 80%	0 to 80%					
COc1ccnc(C(=O)N[C@@H](C)C(=O)O[C@@H](C)[C@H](Cc2ccc(Cl)cc2)c2ccccc2)c1OC(C)=O [compound 201]	0 to 80%	0 to 80%	80 to 100%	0 to 80%				
COc1ccc(CC(Cc2ccc(OC)cc2)[C@H](C)OC(=O)[C@H](C)NC(=O)c2nccc(OC)c2OCOC(C)=O)cc1 [compound 276]	80 to 100%		80 to 100%	0 to 80%				
CCCOC[C@@H](Cc1ccccc1)[C@H](C)OC(=O)CNC(=O)c1nccc(OC)c1OCOC(C)=O [compound 175]	80 to 100%	80 to 100%		0 to 80%				
CCOCC(=O)OCOc1c(OC)ccnc1C(=O)N[C@@H](C)C(=O)O[C@@H](C)[C@H](Cc1ccc(F)cc1)C(C)(C)OC [compound 238]	80 to 100%	0 to 80%	0 to 80%	0 to 80%				
COc1ccnc(C(=O)N[C@@H](C)C(=O)O[C@@H](C)[C@H](Cc2ccccc2)C(C)C)c1OC(C)=O [compound 205]	80 to 100%	80 to 100%	80 to 100%	80 to 100%				
CC[C@@H](c1ccccc1)[C@H](C)OC(=O)[C@H](C)NC(=O)c1nccc(OC)c1OC(C)=O [compound 283]	80 to 100%	80 to 100%	0 to 80%	80 to 100%				
COc1ccnc(C(=O)N[C@@H](C)C(=O)O[C@@H](C)[C@@H](COCc2ccccc2)Cc2ccc(F)cc2)c1OCOC(C)=O [compound 239]	80 to 100%	0 to 80%	80 to 100%	0 to 80%				
COc1ccnc(C(=O)N[C@@H](C)C(=O)O[C@@H](C)[C@H](Cc2ccc(F)cc2)C(C)(C)OC)c1OCOC(C)=O [compound 244]	80 to 100%	80 to 100%	0 to 80%	80 to 100%				
CCCO[C@@H](CC)[C@@H](Cc1ccccc1)[C@H](C)OC(=O)C(C)(C)NC(=O)c1nccc(OC)c1OCOC(C)=O [compound 170]					0 to 80%	0 to 80%	0 to 80%	
CCCO[C@@H](CC)[C@@H](Cc1ccccc1)[C@H](C)OC(=O)[C@@H](C)NC(=O)c1nccc(OC)c1O [compound 94]					80 to 100%	0 to 80%	0 to 80%	80 to 100%
CCCOC(C)(C)[C@@H](Cc1ccccc1)[C@H](C)OC(=O)[C@H](C)NC(=O)c1nccc(OC)c1OCOC(C)=O [compound 207]	80 to 100%	80 to 100%	80 to 100%	80 to 100%				
CC[C@H](Oc1ccccc1)[C@@H](Cc1ccccc1)[C@H](C)OC(=O)[C@H](C)NC(=O)c1nccc(OC)c1O [compound 117]					80 to 100%	80 to 100%	0 to 80%	80 to 100%
CCCO[C@@H](CC)[C@@H](Cc1ccccc1)[C@H](C)OC(=O)[C@H](CC)NC(=O)c1nccc(OC)c1O [compound 95]					80 to 100%	0 to 80%	0 to 80%	80 to 100%
COc1ccnc(C(=O)N[C@@H](C)C(=O)O[C@@H](C)[C@@H](COCCC(C)C)Cc2ccccc2)c1OC(C)=O [compound 248]	80 to 100%	0 to 80%		0 to 80%				
CCCOC[C@@H](Cc1ccc(OC)cc1)[C@H](C)OC(=O)[C@H](C)NC(=O)c1nccc(OC)c1O [compound 143]					80 to 100%	80 to 100%	0 to 80%	0 to 80%
CCCOC[C@@H](Cc1ccc(OC)c(Cc2ccccc2)c1)[C@H](C)OC(=O)[C@H](C)NC(=O)c1nccc(OC)c1O [compound 145]					0 to 80%	80 to 100%	0 to 80%	

SMILES	pest or weed control at 121.5 g/ha (Puccinia triticina; [1])	pest or weed control at 121.5 g/ha (Puccinia triticina; [2])	pest or weed control at 121.5 g/ha (Zymoseptoria tritici; [3])	pest or weed control at 121.5 g/ha (Zymoseptoria tritici; [4])	pest or weed control at 100 ppm (Puccinia triticina; [1])	pest or weed control at 100 ppm (Zymoseptoria tritici; [3])	pest or weed control at 100 ppm (Zymoseptoria tritici; [5])	pest or weed control at 100 ppm (Puccinia triticina; [6])
COc1ccnc(C(=O)N[C@@H](C)C(=O)O[C@@H](C)[C@H](Cc2ccc(F)cc2)C(C)(C)OCc2ccccc2)c1OC(C)=O [compound 229]	0 to 80%		80 to 100%	0 to 80%				
CC[C@H](NC(=O)c1nccc(OC)c1OCOC(C)=O)C(=O)OC(C)C(Cc1ccccc1)Cc1ccccc1 (some centres unmarked) [compound 269]	80 to 100%	0 to 80%	80 to 100%	80 to 100%				
C=C[C@H](Cc1ccc(C(F)(F)F)cc1)[C@@H](Cc1ccc(F)cc1)[C@H](C)OC(=O)[C@H](C)NC(=O)c1nccc(OC)c1O [compound 108]					80 to 100%		0 to 80%	
COc1ccnc(C(=O)N[C@H](C(=O)OC(C)C(Cc2ccccc2)Cc2ccccc2)C(C)C)c1OCOC(C)=O (some centres unmarked) [compound 266]	80 to 100%	0 to 80%	0 to 80%					
CCCOC[C@@H](Cc1ccccc1)[C@H](C)OC(=O)C(C)(C)NC(=O)c1nccc(OC)c1O [compound 99]					0 to 80%		0 to 80%	0 to 80%
COc1ccnc(C(=O)N[C@@H](C)C(=O)O[C@@H](C)[C@H](Cc2ccc(Cl)cc2)c2ccccc2)c1OC(=O)C(C)C [compound 202]	0 to 80%	0 to 80%	80 to 100%	80 to 100%				
COc1ccnc(C(=O)N[C@@H](C)C(=O)O[C@@H](C)[C@H](Cc2ccc(C)cc2)c2ccccc2)c1OC(C)=O [compound 220]	0 to 80%	0 to 80%	80 to 100%	80 to 100%				
CC[C@H](NC(=O)c1nccc(OC)c1OCOC(C)=O)C(=O)O[C@@H](C)C(Cc1ccc(OC)cc1)Cc1ccc(OC)cc1 [compound 277]	80 to 100%	0 to 80%	80 to 100%					
COc1ccc(CC(Cc2ccc(OC)cc2)[C@H](C)OC(=O)[C@H](C)NC(=O)c2nccc(OC)c2O)cc1 [compound 154]					80 to 100%	80 to 100%		
COc1ccnc(C(=O)N[C@@H](C)C(=O)O[C@@H](C)[C@H](Cc2ccccc2)C(C)(C)OCc2ccccc2)c1OC(C)=O [compound 230]	80 to 100%	0 to 80%	80 to 100%	80 to 100%				
COc1ccnc(C(=O)N[C@@H](C)C(=O)O[C@@H](C)[C@@H](COc2ccccc2)Cc2ccccc2)c1O [compound 125]					0 to 80%	0 to 80%	0 to 80%	0 to 80%
CC[C@H](CC1CC1)[C@@H](Cc1ccccc1)[C@H](C)OC(=O)[C@H](C)NC(=O)c1nccc(OC)c1O [compound 102]					80 to 100%	0 to 80%	80 to 100%	80 to 100%
COc1ccnc(C(=O)N[C@@H](C)C(=O)O[C@@H](C)[C@H](Cc2ccc(F)cc2)C(C)(C)OC)c1OC(C)=O [compound 232]	0 to 80%		0 to 80%	0 to 80%				
COc1ccnc(C(=O)N[C@@H](C)C(=O)O[C@@H](C)[C@H](Cc2ccc(Cl)c(Cl)c2)c2ccccc2)c1O [compound 127]					0 to 80%	0 to 80%	0 to 80%	
CCCC[C@@H]([C@H](C)OC(=O)[C@H](C)NC(=O)c1nccc(OC)c1O)[C@@H](CC)Oc1ccccc1 [compound 116]					0 to 80%	0 to 80%	0 to 80%	80 to 100%
CCCOC[C@@H](Cc1ccccc1)[C@H](C)OC(=O)[C@@H](C)NC(=O)c1nccc(OC)c1OCOC(C)=O [compound 166]					80 to 100%	0 to 80%	0 to 80%	80 to 100%
CCCOC[C@@H](Cc1ccccc1)[C@H](C)OC(=O)[C@H](CC)NC(=O)c1nccc(OC)c1O [compound 98]					80 to 100%	80 to 100%	80 to 100%	80 to 100%
COC[C@@H](Cc1ccc(F)cc1)[C@H](C)OC(=O)[C@H](C)NC(=O)c1nccc(OC)c1OC(C)=O [compound 231]	0 to 80%	0 to 80%	0 to 80%	0 to 80%				
